{"source": "ChEMBL document CHEMBL3112407", "about": "(Bioorg Med Chem Lett, 2014)", "data": [{"system": "NCI-H1975", "assay": "cells", "assay_type": "functional, cell-based", "conditions": "Homo sapiens, NCI-H1975, 72 h", "units": {"IC50": "µM"}, "description": "Cytotoxicity against human NCI-H1975 cells expressing EGFR L858R/T790M mutant after 72 hrs by MTT assay", "values": [{"smiles": "C#Cc1cccc(Nc2ncnc3cc4c(cc23)N(C(=O)/C=C/CN2CCCC2)CCCO4)c1", "IC50": 1.74}, {"smiles": "C#Cc1cccc(Nc2ncnc3cc4c(cc23)N(C(=O)/C=C/CN2CCCCC2C)CCO4)c1", "note": "(stereo not drawn)", "IC50": 1.23}, {"smiles": "C#Cc1cccc(Nc2ncnc3cc4c(cc23)N(C(=O)/C=C/CN2CCN(C)CC2)CCCO4)c1", "IC50": "> 10"}, {"smiles": "C#Cc1cccc(Nc2ncnc3cc4c(cc23)N(C(=O)/C=C/CN2CCOCC2)CCCO4)c1", "IC50": "> 10"}, {"smiles": "C#Cc1cccc(Nc2ncnc3cc4c(cc23)N(C(=O)/C=C/CN2CCCCC2)CCCO4)c1", "IC50": 8.59}, {"smiles": "C#Cc1cccc(Nc2ncnc3cc4c(cc23)N(C(=O)/C=C/CN(C)C)CCCO4)c1", "IC50": 1.86}, {"smiles": "C#Cc1cccc(Nc2ncnc3cc4c(cc23)N(C(=O)/C=C/CN(CC)CC)CCCO4)c1", "IC50": "> 10"}, {"smiles": "C#Cc1cccc(Nc2ncnc3cc4c(cc23)N(C(=O)/C=C/CN2CCCCC2C)CCCO4)c1", "note": "(stereo not drawn)", "IC50": "> 10"}]}, {"system": "NCI-N87", "assay": "cells", "assay_type": "functional, cell-based", "conditions": "Homo sapiens, NCI-N87, 72 h", "units": {"IC50": "µM"}, "description": "Cytotoxicity against human NCI-N87 cells expressing HER2 after 72 hrs by MTT assay", "values": [{"smiles": "C#Cc1cccc(Nc2ncnc3cc4c(cc23)N(C(=O)/C=C/CN2CCCC2)CCCO4)c1", "IC50": "> 10"}, {"smiles": "C#Cc1cccc(Nc2ncnc3cc4c(cc23)N(C(=O)/C=C/CN2CCCCC2C)CCO4)c1", "note": "(stereo not drawn)", "IC50": 0.27}, {"smiles": "C#Cc1cccc(Nc2ncnc3cc4c(cc23)N(C(=O)/C=C/CN2CCN(C)CC2)CCCO4)c1", "IC50": "> 10"}, {"smiles": "C#Cc1cccc(Nc2ncnc3cc4c(cc23)N(C(=O)/C=C/CN2CCOCC2)CCCO4)c1", "IC50": "> 10"}, {"smiles": "C#Cc1cccc(Nc2ncnc3cc4c(cc23)N(C(=O)/C=C/CN2CCCCC2)CCCO4)c1", "IC50": "> 10"}, {"smiles": "C#Cc1cccc(Nc2ncnc3cc4c(cc23)N(C(=O)/C=C/CN(C)C)CCCO4)c1", "IC50": "> 10"}, {"smiles": "C#Cc1cccc(Nc2ncnc3cc4c(cc23)N(C(=O)/C=C/CN(CC)CC)CCCO4)c1", "IC50": "> 10"}, {"smiles": "C#Cc1cccc(Nc2ncnc3cc4c(cc23)N(C(=O)/C=C/CN2CCCCC2C)CCCO4)c1", "note": "(stereo not drawn)", "IC50": "> 10"}]}, {"target": "Receptor tyrosine-protein kinase erbB-2 (Homo sapiens, UniProt P04626)", "sequence (P04626 whole entry)": "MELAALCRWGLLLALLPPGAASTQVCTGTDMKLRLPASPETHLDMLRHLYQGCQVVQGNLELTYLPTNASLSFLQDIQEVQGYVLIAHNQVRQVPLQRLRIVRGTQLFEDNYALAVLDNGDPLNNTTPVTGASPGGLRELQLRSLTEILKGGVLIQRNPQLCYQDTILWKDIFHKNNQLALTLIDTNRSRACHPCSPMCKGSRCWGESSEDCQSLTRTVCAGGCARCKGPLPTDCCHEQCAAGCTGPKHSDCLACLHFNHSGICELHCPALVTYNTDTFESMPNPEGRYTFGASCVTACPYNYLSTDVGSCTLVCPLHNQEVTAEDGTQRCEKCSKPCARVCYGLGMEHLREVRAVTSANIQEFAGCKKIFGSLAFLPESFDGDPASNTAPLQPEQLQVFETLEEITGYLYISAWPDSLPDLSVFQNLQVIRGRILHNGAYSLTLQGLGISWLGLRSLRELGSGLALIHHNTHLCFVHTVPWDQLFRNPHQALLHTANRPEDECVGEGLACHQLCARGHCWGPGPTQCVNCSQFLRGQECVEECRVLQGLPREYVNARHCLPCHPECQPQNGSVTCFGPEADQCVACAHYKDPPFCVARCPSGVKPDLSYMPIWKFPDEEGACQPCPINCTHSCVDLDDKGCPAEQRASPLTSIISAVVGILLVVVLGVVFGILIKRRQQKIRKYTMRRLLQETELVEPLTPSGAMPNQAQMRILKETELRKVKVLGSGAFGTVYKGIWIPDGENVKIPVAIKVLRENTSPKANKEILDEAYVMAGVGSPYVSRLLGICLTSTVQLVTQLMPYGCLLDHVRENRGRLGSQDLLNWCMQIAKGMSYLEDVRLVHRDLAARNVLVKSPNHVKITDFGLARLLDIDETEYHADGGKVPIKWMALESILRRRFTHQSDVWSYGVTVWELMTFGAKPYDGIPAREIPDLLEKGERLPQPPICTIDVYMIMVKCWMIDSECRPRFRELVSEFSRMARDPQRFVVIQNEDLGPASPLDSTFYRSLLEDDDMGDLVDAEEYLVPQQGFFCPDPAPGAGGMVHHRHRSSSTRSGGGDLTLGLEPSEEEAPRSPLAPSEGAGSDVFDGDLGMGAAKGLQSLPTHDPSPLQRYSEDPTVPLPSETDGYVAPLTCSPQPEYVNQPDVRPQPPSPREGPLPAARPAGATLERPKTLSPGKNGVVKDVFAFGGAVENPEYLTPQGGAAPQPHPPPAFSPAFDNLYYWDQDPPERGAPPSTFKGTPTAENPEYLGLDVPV", "assay": "Inhibition of HER2 (unknown origin) after 10 mins", "conditions": "not given", "units": {"IC50": "nM"}, "values": [{"smiles": "C#Cc1cccc(Nc2ncnc3cc4c(cc23)N(C(=O)/C=C/CN2CCCCC2C)CCO4)c1", "note": "(stereo not drawn)", "IC50": 290}]}, {"system": "BT-474", "assay": "cells", "assay_type": "functional, cell-based", "conditions": "Homo sapiens, BT-474, 72 h", "units": {"IC50": "µM"}, "description": "Cytotoxicity against human BT474 cells expressing HER2 after 72 hrs by MTT assay", "values": [{"smiles": "C#Cc1cccc(Nc2ncnc3cc4c(cc23)N(C(=O)/C=C/CN2CCCC2)CCCO4)c1", "IC50": "> 10"}, {"smiles": "C#Cc1cccc(Nc2ncnc3cc4c(cc23)N(C(=O)/C=C/CN2CCCCC2C)CCO4)c1", "note": "(stereo not drawn)", "IC50": 1.15}, {"smiles": "C#Cc1cccc(Nc2ncnc3cc4c(cc23)N(C(=O)/C=C/CN2CCN(C)CC2)CCCO4)c1", "IC50": "> 10"}, {"smiles": "C#Cc1cccc(Nc2ncnc3cc4c(cc23)N(C(=O)/C=C/CN2CCOCC2)CCCO4)c1", "IC50": "> 10"}, {"smiles": "C#Cc1cccc(Nc2ncnc3cc4c(cc23)N(C(=O)/C=C/CN2CCCCC2)CCCO4)c1", "IC50": "> 10"}, {"smiles": "C#Cc1cccc(Nc2ncnc3cc4c(cc23)N(C(=O)/C=C/CN(C)C)CCCO4)c1", "IC50": "> 10"}, {"smiles": "C#Cc1cccc(Nc2ncnc3cc4c(cc23)N(C(=O)/C=C/CN(CC)CC)CCCO4)c1", "IC50": "> 10"}, {"smiles": "C#Cc1cccc(Nc2ncnc3cc4c(cc23)N(C(=O)/C=C/CN2CCCCC2C)CCCO4)c1", "note": "(stereo not drawn)", "IC50": "> 10"}]}, {"target": "Epidermal growth factor receptor (Homo sapiens, UniProt P00533)", "sequence (P00533 whole entry)": "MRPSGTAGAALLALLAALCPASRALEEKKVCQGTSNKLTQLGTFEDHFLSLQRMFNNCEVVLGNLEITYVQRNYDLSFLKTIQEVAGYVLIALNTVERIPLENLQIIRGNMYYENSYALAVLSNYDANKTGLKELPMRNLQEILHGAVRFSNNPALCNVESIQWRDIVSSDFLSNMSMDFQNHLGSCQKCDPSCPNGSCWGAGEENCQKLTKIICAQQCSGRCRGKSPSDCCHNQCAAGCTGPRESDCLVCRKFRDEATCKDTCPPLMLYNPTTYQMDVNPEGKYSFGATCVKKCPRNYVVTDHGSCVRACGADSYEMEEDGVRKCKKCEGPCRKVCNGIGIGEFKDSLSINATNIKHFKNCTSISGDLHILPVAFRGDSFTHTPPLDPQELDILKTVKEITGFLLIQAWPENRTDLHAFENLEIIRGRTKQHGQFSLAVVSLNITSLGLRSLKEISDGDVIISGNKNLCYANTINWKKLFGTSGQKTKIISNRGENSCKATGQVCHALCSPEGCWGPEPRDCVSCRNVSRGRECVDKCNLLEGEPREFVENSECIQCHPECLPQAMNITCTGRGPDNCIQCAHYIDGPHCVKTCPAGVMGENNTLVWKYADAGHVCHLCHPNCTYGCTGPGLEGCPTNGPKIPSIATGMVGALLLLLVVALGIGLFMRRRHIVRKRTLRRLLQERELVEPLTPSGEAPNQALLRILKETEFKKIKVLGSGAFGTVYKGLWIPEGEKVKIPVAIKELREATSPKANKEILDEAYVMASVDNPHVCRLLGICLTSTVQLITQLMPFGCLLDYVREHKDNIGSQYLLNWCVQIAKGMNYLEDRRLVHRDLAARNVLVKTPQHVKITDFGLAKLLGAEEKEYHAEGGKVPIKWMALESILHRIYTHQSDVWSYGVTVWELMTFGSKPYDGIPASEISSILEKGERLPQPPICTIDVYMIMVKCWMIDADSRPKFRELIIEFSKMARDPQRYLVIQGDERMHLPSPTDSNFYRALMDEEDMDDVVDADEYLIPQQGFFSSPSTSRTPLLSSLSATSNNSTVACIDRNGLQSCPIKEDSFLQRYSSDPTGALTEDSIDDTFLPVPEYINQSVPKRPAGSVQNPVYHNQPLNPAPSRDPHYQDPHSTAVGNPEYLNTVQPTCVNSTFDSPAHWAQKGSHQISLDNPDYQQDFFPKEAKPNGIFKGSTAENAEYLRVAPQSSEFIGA", "assay": "not given", "assay_type": "cell-based, KB", "conditions": "not given", "units": {"IC50": "µM"}, "values": [{"smiles": "C#Cc1cccc(Nc2ncnc3cc4c(cc23)N(C(=O)/C=C/CN2CCCC2)CCCO4)c1", "IC50": "> 10"}, {"smiles": "C#Cc1cccc(Nc2ncnc3cc4c(cc23)N(C(=O)/C=C/CN2CCN(C)CC2)CCCO4)c1", "IC50": "> 10"}, {"smiles": "C#Cc1cccc(Nc2ncnc3cc4c(cc23)N(C(=O)/C=C/CN2CCOCC2)CCCO4)c1", "IC50": "> 10"}, {"smiles": "C#Cc1cccc(Nc2ncnc3cc4c(cc23)N(C(=O)/C=C/CN2CCCCC2)CCCO4)c1", "IC50": "> 10"}, {"smiles": "C#Cc1cccc(Nc2ncnc3cc4c(cc23)N(C(=O)/C=C/CN(C)C)CCCO4)c1", "IC50": "> 10"}, {"smiles": "C#Cc1cccc(Nc2ncnc3cc4c(cc23)N(C(=O)/C=C/CN(CC)CC)CCCO4)c1", "IC50": "> 10"}, {"smiles": "C#Cc1cccc(Nc2ncnc3cc4c(cc23)N(C(=O)/C=C/CN2CCCCC2C)CCCO4)c1", "note": "(stereo not drawn)", "IC50": "> 10"}]}, {"system": "not listed separately", "assay": "cells", "assay_type": "functional, cell-based", "conditions": "Homo sapiens, Calu-3, 72 h", "units": {"IC50": "µM"}, "description": "Cytotoxicity against human Calu3 cells expressing HER2 after 72 hrs by MTT assay", "values": [{"smiles": "C#Cc1cccc(Nc2ncnc3cc4c(cc23)N(C(=O)/C=C/CN2CCCC2)CCCO4)c1", "IC50": "> 10"}, {"smiles": "C#Cc1cccc(Nc2ncnc3cc4c(cc23)N(C(=O)/C=C/CN2CCCCC2C)CCO4)c1", "note": "(stereo not drawn)", "IC50": 0.95}, {"smiles": "C#Cc1cccc(Nc2ncnc3cc4c(cc23)N(C(=O)/C=C/CN2CCN(C)CC2)CCCO4)c1", "IC50": "> 10"}, {"smiles": "C#Cc1cccc(Nc2ncnc3cc4c(cc23)N(C(=O)/C=C/CN2CCOCC2)CCCO4)c1", "IC50": "> 10"}, {"smiles": "C#Cc1cccc(Nc2ncnc3cc4c(cc23)N(C(=O)/C=C/CN2CCCCC2)CCCO4)c1", "IC50": "> 10"}, {"smiles": "C#Cc1cccc(Nc2ncnc3cc4c(cc23)N(C(=O)/C=C/CN(C)C)CCCO4)c1", "IC50": "> 10"}, {"smiles": "C#Cc1cccc(Nc2ncnc3cc4c(cc23)N(C(=O)/C=C/CN(CC)CC)CCCO4)c1", "IC50": "> 10"}, {"smiles": "C#Cc1cccc(Nc2ncnc3cc4c(cc23)N(C(=O)/C=C/CN2CCCCC2C)CCCO4)c1", "note": "(stereo not drawn)", "IC50": "> 10"}]}, {"system": "A-431", "assay": "cells", "assay_type": "functional, cell-based", "conditions": "Homo sapiens, A-431, 72 h", "units": {"IC50": "nM"}, "description": "Cytotoxicity against human A431 cells expressing EGFR after 72 hrs by MTT assay", "values": [{"smiles": "C#Cc1cccc(Nc2ncnc3cc4c(cc23)N(C(=O)/C=C/CN2CCCC2)CCCO4)c1", "IC50": 1820}, {"smiles": "C#Cc1cccc(Nc2ncnc3cc4c(cc23)N(C(=O)/C=C/CN2CCCCC2C)CCO4)c1", "note": "(stereo not drawn)", "IC50": 690}, {"smiles": "C#Cc1cccc(Nc2ncnc3cc4c(cc23)N(C(=O)/C=C/CN2CCN(C)CC2)CCCO4)c1", "IC50": "> 10000"}, {"smiles": "C#Cc1cccc(Nc2ncnc3cc4c(cc23)N(C(=O)/C=C/CN2CCOCC2)CCCO4)c1", "IC50": "> 10000"}, {"smiles": "C#Cc1cccc(Nc2ncnc3cc4c(cc23)N(C(=O)/C=C/CN2CCCCC2)CCCO4)c1", "IC50": "> 10000"}, {"smiles": "C#Cc1cccc(Nc2ncnc3cc4c(cc23)N(C(=O)/C=C/CN(C)C)CCCO4)c1", "IC50": 1750}, {"smiles": "C#Cc1cccc(Nc2ncnc3cc4c(cc23)N(C(=O)/C=C/CN(CC)CC)CCCO4)c1", "IC50": 2160}, {"smiles": "C#Cc1cccc(Nc2ncnc3cc4c(cc23)N(C(=O)/C=C/CN2CCCCC2C)CCCO4)c1", "note": "(stereo not drawn)", "IC50": "> 10000"}]}]}
